ChEMBL document CHEMBL4433234, “3H-Imidazo[4,5-b]pyridine-6-carboxylic acid derivatives as rexinoids with reduced teratogenicity” (Bioorg Med Chem Lett, 2019)
In brackets after ≈: the same amount, converted by molar mass.

Legend:
[1] = Toxicity in fertilized zebra fish embryos assessed as survival rate at 300 nM incubated for 120 hrs post fertilization by microscopic method relative to untreated control (reference value: 100%); parameters: species or system Danio rerio; settings: zebrafish
[2] = Toxicity in fertilized zebra fish embryos assessed as survival rate at 1000 nM incubated for 120 hrs post fertilization by microscopic method relative to untreated control (reference value: 100%); parameters: species or system Danio rerio; settings: zebrafish
[3] = Toxicity in fertilized zebra fish embryos assessed as survival rate at 100 nM incubated for 120 hrs post fertilization by microscopic method relative to untreated control (reference value: 100%); parameters: species or system Danio rerio; settings: zebrafish
[4] = Aqueous solubility in pH 7.4 PBS buffer at 1 mM after 6 hrs by HPLC analysis; assay type: physicochemical
[5] = Toxicity in fertilized zebra fish embryos assessed as hatching rate at 300 nM incubated for 120 hrs post fertilization by microscopic method relative to untreated control (reference value: 100%); parameters: species or system Danio rerio; settings: zebrafish, 0.3 µM
[6] = Toxicity in fertilized zebra fish embryo assessed as teratogenic effect by measuring malformation of spine curvature and head enlargement at 100 nM after 120 hrs post fertilization by microscopic method relative to control; parameters: species or system Danio rerio; settings: zebrafish, 0.1 µM
[7] = Toxicity in fertilized zebra fish embryo assessed as teratogenic effect by measuring malformation of spine curvature and head enlargement at 1000 nM after 120 hrs post fertilization by microscopic method relative to control; parameters: species or system Danio rerio; settings: zebrafish, 1 µM
[8] = Toxicity in fertilized zebra fish embryos assessed as hatching rate at 100 nM incubated for 120 hrs post fertilization by microscopic method relative to untreated control (reference value: 100%); parameters: species or system Danio rerio; settings: zebrafish, 0.1 µM
[9] = Toxicity in fertilized zebra fish embryos assessed as hatching rate at 1000 nM incubated for 120 hrs post fertilization by microscopic method relative to untreated control (reference value: 100%); parameters: species or system Danio rerio; settings: zebrafish, 1 µM
[10] = Toxicity in fertilized zebra fish embryo assessed as teratogenic effect by measuring malformation of spine curvature and head enlargement at 300 nM after 120 hrs post fertilization by microscopic method relative to control; parameters: species or system Danio rerio; settings: zebrafish, 0.3 µM
[11] = Toxicity in fertilized zebra fish embryo assessed as induction of malformation of spine curvature at 1000 nM after 120 hrs post fertilization by microscopic method relative to control; parameters: species or system Danio rerio; settings: zebrafish, 1 µM
[12] = molecular target: T1, Retinoic acid receptor RXR-alpha (Homo sapiens, UniProt P19793); assay: Agonist activity at human RXRalpha expressed in African green monkey COS1 cells harboring CRBP2-tk-luc reporter incubated for 18 hrs by steady-glo luciferase reporter gene assay; assay type: cell-based
T1 sequence (P19793 whole entry): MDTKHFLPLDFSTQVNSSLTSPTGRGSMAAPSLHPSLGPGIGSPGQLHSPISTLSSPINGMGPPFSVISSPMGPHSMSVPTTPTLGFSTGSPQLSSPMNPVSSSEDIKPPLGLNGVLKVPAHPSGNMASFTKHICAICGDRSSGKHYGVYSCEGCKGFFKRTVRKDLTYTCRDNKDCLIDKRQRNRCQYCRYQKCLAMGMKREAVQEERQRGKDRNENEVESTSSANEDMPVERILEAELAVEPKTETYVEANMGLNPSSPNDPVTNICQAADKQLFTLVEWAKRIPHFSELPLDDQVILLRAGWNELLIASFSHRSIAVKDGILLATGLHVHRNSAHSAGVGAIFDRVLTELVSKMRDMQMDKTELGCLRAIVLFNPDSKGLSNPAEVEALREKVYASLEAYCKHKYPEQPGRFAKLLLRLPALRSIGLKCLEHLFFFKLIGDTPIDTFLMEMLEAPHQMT

[13] = Toxicity in fertilized zebra fish embryos assessed as hatching rate at 287 nM incubated for 120 hrs post fertilization by microscopic method relative to untreated control (reference value: 100%); parameters: species or system Danio rerio; settings: zebrafish, 0.287 µM
[14] = Toxicity in fertilized zebra fish embryos assessed as survival rate at 287 nM incubated for 120 hrs post fertilization by microscopic method relative to untreated control (reference value: 100%); parameters: species or system Danio rerio; settings: zebrafish

Compound | survival at 120 h, 0.3 µM [1] | survival at 120 h, 1 µM [2] | survival at 120 h, 0.1 µM [3] | solubility at 6 h, 1000 µM [4] | Activity [5] | Activity [6] | Activity [7] | Activity [8] | Activity [9] | Activity [10] | Activity [11] | EC50 [12] | Activity [13] | survival at 120 h, 0.287 µM [14]
Cc1cc2c(cc1-n1nnc3cc(C(=O)O)ccc31)C(C)(C)CCC2(C)C | 100% | 100% | 100% | 305 µM (≈ 111 µg/mL) |  |  |  |  |  |  |  |  |  | 
Cc1cc2c(cc1-n1c(C(F)(F)F)nc3cc(C(=O)O)ccc31)C(C)(C)CCC2(C)C | 100% | 100% | 100% | 12.8 µM (≈ 5.51 µg/mL) | 92% | 0% | 17% | 83% | 100% | 0% |  |  |  | 
Cc1cc2c(cc1-n1c(C(F)(F)F)nc3cc(C(=O)O)cnc31)C(C)(C)CCC2(C)C | 100% | 100% | 100% | 222 µM (≈ 95.8 µg/mL) | 100% | 0% | 10% | 92% | 83% | 0% | Non-Toxic | 670 nM |  | 
Cc1cc2c(cc1-n1nnc3cc(C(=O)O)cnc31)C(C)(C)CCC2(C)C | 100% | 100% | 100% | 670 µM (≈ 244 µg/mL) | 100% | 0% | 25% | 100% | 100% | 0% | Toxic | 275 nM |  | 
C=C(c1ccc(C(=O)O)cc1)c1cc2c(cc1C)C(C)(C)CCC2(C)C [BEXAROTENE] |  |  | 100% | 0.25 µM (≈ 0.0871 µg/mL) |  | 100% |  | 67 to 100% |  |  |  |  | 99% | 99%
